According to EP1004306A2, “Estrogen agonists/antagonists” (Pfizer Products Inc., priority 1998, dated 2000):

How the values were obtained:
OVX rats = assay: Prevention of bone loss in OVX rats (female bone mineral density, DEXA); assay type: in vivo; settings: Rattus norvegicus, 672 h, oral, read-out: oral ED50, prevents bone loss in OVX rats
Description: Bone mineral density, a measure of bone mineral content, accounts for greater than 80% of a bone's strength. Loss of bone mineral density with age and/or disease reduces a bone's strength and renders it more prone to fracture. Bone mineral content is accurately measured in people and animals by dual x-ray absorptiometry (DEXA) such that changes as little as 1% can be quantified. We have utilized DEXA to evaluate changes in bone mineral density due to estrogen deficiency following ovariectomy (surgical removal of ovaries) and treatment with vehicle, estradiol (E2), keoxifen (raloxifen), or other estrogen agonists. The purpose of these studies is to evaluate the ability of the compounds of this invention to prevent estrogen deficiency bone loss as measured by DEXA. Female (S-D) rats 4-6 months of age undergo bilateral ovariectomy or sham surgery and allowed to recover from anesthesia. […] (Hologic, Inc. Waltham, MA) and bone mineral density is determined in the distal portion of the femur at a site from 1cm to 2cm from the distal end of the femur using the high resolution software supplied by Hologic. Bone mineral density is determined by dividing the bone mineral content by the bone area of the distal femur. […] Mean bone mineral density is obtained for each animal and statistical differences (p<0.05) from the vehicle-treated ovariectomy and sham-operated group were determined by t test.

adult ORX rats [1] = assay: Male osteoporosis model: total serum cholesterol; assay type: in vivo, Sprague-Dawley male rats; settings: for decrease of total serum cholesterol: ORX rats
Protocol: Fifty Sprague-Dawley male rats were sham-operated (n=10) or ORX (n=40) at 10 months of age. Ten rats were autopsied on day 0 as basal controls. ORX rats were treated (daily p.o.) with either vehicle (10% ethanol in water) or (-)Cis-6-phenyl-5-[4-(2-pyrrolidin-1-yl-ethoxy)phenyl]-5,6,7,8-tetrahydronaphthalen-2-ol at 1, 10, or 100 µg/kg/day for 60 days. There were 10 rats per each subgroup. all rats were given subcutaneous injections with 10 mg/kg of calcein (Sigma Chemical Co., St. Louis, MO) on 13 and 3 days before autopsy. • 1) Total serum cholesterol: Total serum cholesterol was determined using a high performance cholesterol colormetic assay (Boehringer Mannheim Biochemicals, Indianapolis, IN). • 2) Prostate weight: The prostate weight was determined immediately at autopsy. • 3) Femoral Bone Mineral Measurements: The right femur from each rat was removed at autopsy and scanned using dual energy x-ray absorptiometry (DEXA, QDR 1000/W, Hologic Inc., Waltham, MA) equipped with "Regional High Resolution Scan" software (Hologic Inc., Waltham, MA). The scan field size is 5.08 x 1.902 cm, resolution was 0.0254 x 0.0127 cm and scan speed is 7.25 mim/second. The femoral scan images were analyzed and bone area, bone mineral content (BMC), and bone mineral density (BMD) of whole femora (WF), distal femoral metaphyses (DFM), femoral shaft (FS) were determined according to the method described in H. Z. Ke et al., Droloxifene, a New Estrogen Antagonist/Agonist, Prevents Bone Loss in Ovariectomized Rats. ENDOCRINOLOGY 136;2435-2441, 1995. • 4) Third Lumbar Vertebral Body (LV3) Histomorphometry: The LV3 was removed at autopsy, dissected free of muscle, fixed in 70% ethanol, dehydrated in graded concentrations of ethanol, defatted in acetone, then embedded in methyl methacrylate (Eastman Organic Chemicals, Rochester, NY). Longitudinal sections of LV3 at 4 and 10 µm thickness were cut using Reichert-Jung Polycut S microtome. One 4 µm and one 10 µm sections from each rat will be used for cancellous bone histomorphometry. […]

adult ORX rats [2] = assay: Male osteoporosis model: prostate weight and histology; assay type: in vivo, Sprague-Dawley male rats; settings: 10 and 100 µg/kg/d p.o. for 60 days; compared to ORX controls
Protocol: (§1) Fifty Sprague-Dawley male rats were sham-operated (n=10) or ORX (n=40) at 10 months of age. Ten rats were autopsied on day 0 as basal controls. ORX rats were treated (daily p.o.) with either vehicle (10% ethanol in water) or (-)Cis-6-phenyl-5-[4-(2-pyrrolidin-1-yl-ethoxy)phenyl]-5,6,7,8-tetrahydronaphthalen-2-ol at 1, 10, or 100 µg/kg/day for 60 days. There were 10 rats per each subgroup. all rats were given subcutaneous injections with 10 mg/kg of calcein (Sigma Chemical Co., St. Louis, MO) on 13 and 3 days before autopsy. • 1) Total serum cholesterol: Total serum cholesterol was determined using a high performance cholesterol colormetic assay (Boehringer Mannheim Biochemicals, Indianapolis, IN). • 2) Prostate weight: The prostate weight was determined immediately at autopsy. • 3) Femoral Bone Mineral Measurements: The right femur from each rat was removed at autopsy and scanned using dual energy x-ray absorptiometry (DEXA, QDR 1000/W, Hologic Inc., Waltham, MA) equipped with "Regional High Resolution Scan" software (Hologic Inc., Waltham, MA). The scan field size is 5.08 x 1.902 cm, resolution was 0.0254 x 0.0127 cm and scan speed is 7.25 mim/second. […]

adult ORX rats [3] = assay: Male osteoporosis model: femoral bone mineral measurements (DEXA); assay type: in vivo, Sprague-Dawley male rats; settings: 10 or 100 µg/kg/day p.o. for 60 days; compared to ORX controls
Protocol: as §1

adult ORX rats [4] = assay: Male osteoporosis model: third lumbar vertebral body (LV3) histomorphometry; assay type: in vivo, Sprague-Dawley male rats; settings: for Activation Frequency: ORX rats, daily p.o. 60 days
Protocol: (§2) Fifty Sprague-Dawley male rats were sham-operated (n=10) or ORX (n=40) at 10 months of age. Ten rats were autopsied on day 0 as basal controls. […] There were 10 rats per each subgroup. all rats were given subcutaneous injections with 10 mg/kg of calcein (Sigma Chemical Co., St. Louis, MO) on 13 and 3 days before autopsy. • 1) Total serum cholesterol: Total serum cholesterol was determined using a high performance cholesterol colormetic assay (Boehringer Mannheim Biochemicals, Indianapolis, IN). • 2) Prostate weight: The prostate weight was determined immediately at autopsy. • 3) Femoral Bone Mineral Measurements: The right femur from each rat was removed at autopsy and scanned using dual energy x-ray absorptiometry (DEXA, QDR 1000/W, Hologic Inc., Waltham, MA) equipped with "Regional High Resolution Scan" software (Hologic Inc., Waltham, MA). The scan field size is 5.08 x 1.902 cm, resolution was 0.0254 x 0.0127 cm and scan speed is 7.25 mim/second. The femoral scan images were analyzed and bone area, bone mineral content (BMC), and bone mineral density (BMD) of whole femora (WF), distal femoral metaphyses (DFM), femoral shaft (FS) were determined according to the method described in H. Z. Ke et al., Droloxifene, a New Estrogen Antagonist/Agonist, Prevents Bone Loss in Ovariectomized Rats. ENDOCRINOLOGY 136;2435-2441, 1995. • 4) Third Lumbar Vertebral Body (LV3) Histomorphometry: The LV3 was removed at autopsy, dissected free of muscle, fixed in 70% ethanol, dehydrated in graded concentrations of ethanol, defatted in acetone, then embedded in methyl methacrylate (Eastman Organic Chemicals, Rochester, NY). Longitudinal sections of LV3 at 4 and 10 µm thickness were cut using Reichert-Jung Polycut S microtome. One 4 µm and one 10 µm sections from each rat will be used for cancellous bone histomorphometry. The 4 µm sections were stained with modified Masson's Trichrome stain while the 10 µm sections remained unstained.
A Bioquant OS/2 histomorphometry system (R&M Biometrics, Inc., Nashville, TN) was used for the static and dynamic histomorphometric measurements of the secondary spongiosa of the proximal tibial metaphyses between 1.2 and 3.6 mm distal to the growth plate-epiphyseal junction. The first 1.2 mm of the tibial metaphyseal region need to be omitted in order to restrict measurements to the secondary spongiosa. The 4 µm sections will be used to determine indices related to bone volume, bone structure, and bone resorption, while the 10 µm sections will be used to determine indices related to bone formation and bone turnover.
• 1. Total metaphyseal area (TV, mm^2): metaphyseal area between 1.2 and 3.6 mm distal to the growth plate-epiphyseal junction. • 2. Trabecular bone area (BV, mm^2): total area of trabeculae within TV. • 3. Trabecular bone perimeter (BS, mm): the length of total perimeter of trabeculae. • 4. Trabecular bone volume (BV/TV,%): BV / TV x 100. • 5. Trabecular bone number (TBN,#/mm): 1.199 / 2 x BS / TV. • 6. Trabecular bone thickness (TBT, µm): (2000 / 1.199) x (BV / BS). • 7. Trabecular bone separation (TBS, µm): (2000 x 1.199) x (TV - BV).
• 1. Osteoclast number (OCN, #): total number of osteoclast within total metaphyseal area. • 2. […] (OCP, mm): length of trabecular perimeter covered by osteoclast. • 3. Osteoclast number/mm (OCN/mm, #/mm): OCN / BS. • 4. Percent osteoclast perimeter (%OCP,%): OCP / BS x 100.
• 1. Single-calcein labeled perimeter (SLS, mm): total length of trabecular perimeter labeled with one calcein label. • 2. Double-calcein labeled perimeter (DLS, mm): total length of trabecular perimeter labeled with two calcein labels. • 3. Inter-labeled width (ILW, µm): average distance between two calcein labels. • 4. Percent mineralizing perimeter (PMS,%):(SLS/2 + DLS) / BS x 100. • 5. Mineral apposition rate (MAR, µm/day): ILW / label interval. • 6. Bone formation rate/surface ref. (BFR/BS, µm^2/d/µm): (SLS/2 + DLS) x MAR / BS. • 7. […]

adult ORX rats [5] = assay: Male osteoporosis model: compression test of fifth lumbar vertebral body (LV5); assay type: in vivo, Sprague-Dawley male rats; settings: for Maximal Load of LV5: ORX rats, daily p.o. 60 days, p < 0.05 vs. ORX
Protocol: as §2, with “Longitudinal sections of LV3 at 4 and 10 µm thickness were cut using Reichert-Jung Polycut S microtome. One 4 µm and one 10 µm sections from each rat will be used for cancellous bone histomorphometry. The 4 µm sections were stained with modified Masson's Trichrome stain while the 10 µm sections remained unstained.” left out
• 1. […] A compression test was used to determine the mechanical properties of LV5, as described by Mosekilde et al. (Mosekilde, L., Danielsen, C. C., Gasser, J. The effect on vertebral bone mass and strength of long term treatment with antiresorptive agents, human PTH (1-38), and combination therapy, assessed in aged ovariectomized rats. Endocrinol 1994; 134:2126-2134). […] The maximal load and stiffness were calculated from the load-displacement curve.

[6] = Male osteoporosis model: body weight; assay type: in vivo, Sprague-Dawley male rats; settings: 1, 10, 100 µg/kg/day p.o. for 60 days; compared to both sham and ORX controls
Protocol: as §1

Male Sprague-Dawley rats = assay: Effect on prostate weight; assay type: in vivo
Protocol: Male Sprague-Dawley rats, three months of age are administered by subcutaneous injection either vehicle (10% ethanol in water), estradiol (30 µg/kg), testosterone (1 mg/kg) or a compound of formula I daily for 14 days (n=6/group). After 14 days the animals are sacrificed, the prostate is removed, and the wet prostate weight is determined. Mean weight is determined and statistical significance (p<0.05) is determined compared to the vehicle-treated group using Student's t-test.

male rats [7] = settings: treatment of male rats; cited from earlier work
male rats [8] = settings: 200 and 400 mg/kg/day; cited from earlier work
[9] = 10 or 100 µg/kg/day p.o. for 60 days, compared to ORX controls

Oc1ccc2c(c1)CC[C@H](c1ccccc1)[C@@H]2c1ccc(OCCN2CCCC2)cc1 [(-)Cis-6-phenyl-5-[4-(2-pyrrolidin-1-yl-ethoxy)phenyl]-5,6,7,8-tetrahydronaphthalen-2-ol]
ED50 (OVX rats): ~1 µg/kg | decrease of total serum cholesterol (adult ORX rats [1]; 10 µg/kg/d p.o. for 60 days): 46% | decrease of total serum cholesterol (adult ORX rats [1]; 100 µg/kg/d p.o. for 60 days): 68% | total serum cholesterol (adult ORX rats [1]; 1, 10, 100 µg/kg/day p.o. for 60 days, compared to both sham and ORX controls): dose-dependently decreased | prostate histology parameters (adult ORX rats [2]): no effect | prostate weight (adult ORX rats [2]): no effect | age-related and ORX-induced decreases in DFBMD (adult ORX rats [3]): completely prevented | age-related and ORX-induced decreases in TBV (adult ORX rats [4]; [9]): completely prevented | bone resorption (adult ORX rats [4]; [9]): significantly decreased | bone turnover (adult ORX rats [4]; [9]): significantly decreased | Activation Frequency (adult ORX rats [4]; 10 µg dose group): 2.06 ± 0.28 #/year | Activation Frequency (adult ORX rats [4]; 100 µg dose group, p < 0.05 vs. ORX): 0.93 ± 0.08 # #/year | Activation Frequency (adult ORX rats [4]; dose group printed as 1 mg, p < 0.05 vs. Sham): 2.67 ±0.34 #/year | age-related and ORX-induced decreases in maximal load (adult ORX rats [5]; [9]): completely prevented | Maximal Load of LV5 (adult ORX rats [5]; 10 µg dose group): 393 ± 27 N | Maximal Load of LV5 (adult ORX rats [5]; 100 µg dose group): 393 ± 25 N | body weight [6]: dose-dependently decreased

C[C@]12CC[C@H]3[C@@H](CCC4=CC(=O)CC[C@@]43C)[C@@H]1CC[C@@H]2O [Testosterone, testosterone]
prostate weight compared to vehicle (Male Sprague-Dawley rats; testosterone 1 mg/kg s.c. daily for 14 days): no effect

C[C@]12CC[C@@H]3c4ccc(O)cc4CC[C@H]3[C@@H]1CC[C@@H]2O [estrogen, estradiol]
prostate weight compared to vehicle (Male Sprague-Dawley rats; 30 µg/kg s.c. daily for 14 days): significantly reduces prostate weight

O=C(c1ccc(OCCN2CCCCC2)cc1)c1c(-c2ccc(O)cc2)sc2cc(O)ccc12 [raloxifene, 6-hydroxy-2-(4-hydroxyphenyl)-3-[4-(2-piperidinoethoxy)benzoyl] benzo[b] thiophene]
ventral prostate (male rats [7]): regression of the ventral prostate

CC/C(=C(\c1ccccc1)c1ccc(OCCN(C)C)cc1)c1ccccc1 [tamoxifen, 1-(4-β-dimethylaminoethoxyphenyl)-1,2-diphenyl-but-1-ene]
weights of the testes and secondary sex organs (male rats [8]): reduces the weights of the testes and secondary sex organs
